Consider one molecule from US12083082B2, “Methods for treating neurodegenerative disorders” (Alzheon, Inc., priority 2018, dated 2024).

This data set in a line: Oral and iv pharmacokinetics of 3-SPA in male SD rats. It is filed as in vivo, Sprague-Dawley rats. The procedure: The oral and iv pharmacokinetics of 3-SPA was evaluated in male Sprague-Dawley fasted rats at a dose of 30 mg/kg and 10 mg/kg respectively (n=3 per groups). Animals were housed in a standard facility, with water and food was provided ad libitum to the experiment. 3-SPA was dissolved in saline, was administered orally by gavage and intravenously as a bolus. Serial blood samples (approximately 1.0 mL each) were collected from each animal at 0.25, 0.5, 1, 2, 4, 8 and 24 hours after dosing into tubes containing K2EDTA and processed for plasma by centrifugation. Plasma samples were stored at −80° C. until bioanalyses.
A separate group of animals was dosed orally at 30 mg/kg and terminal brain, CSF and plasma samples were collected at 1, 2, 6, and 24 hr (3 animals for each time point) for bioanalyses of 3-SPA in brain and CSF, and to estimate brain penetration relative to plasma concentrations. The in-life study was performed at Agilux Laboratories (Worcester, MA) following quality standards in line with Good Laboratory Practice. Bioanalyses of rat plasma, CSF and brain was preformed using LC-MS/MS at Nextcea. Prior to processing rat brains for bioanalysis, the brains were perfused to remove pooled blood. Pharmacokinetic data analyses were conducted using Winnonlin Professional v5.0.1 (Pharsight, Mountain View, CA).
The plasma concentration of a single dose of 3-SPA, dissolved in saline as a clear solution, administered orally and intravenously to rats at a dose level of 30 mg/kg and 10 mg/kg, respectively, are shown in FIG. 9. Brain, CSF and corresponding plasma levels after a single oral dose of dose of 30 mg/kg of 3-SPA at 1, 2, 6, and 24 hr are shown in FIG. 10. Mean PK curves were used for calculation of pharmacokinetic parameters.

Like-named read-outs stand apart in the source and are kept apart here.

As for `O=C(O)CCS(=O)(=O)O` [3-SPA, 3-sulfopropanoic acid], the Tmax (Sprague-Dawley, rat, iv 10 mg/kg, plasma, read-out: Tmax) was 4.8 min. Where the note is “iv 10 mg/kg”, the Cl_obs was determined as 45 mL/min/kg, the Vss_obs came out at 12.9 L/kg and the Vz_obs came to 43.6 L/kg. Further, where the note is “iv 10 mg/kg, plasma”, the “AUC 0-inf_obs” value was determined as 3638 ng·h/mL, the “AUC 0-t” value was determined as 3407 ng·h/mL, the C0 amounted to 13599 ng/mL and the Cmax turned out to be 7484 ng/mL. In addition, the t½ (iv 10 mg/kg, plasma) stood at 659.4 min. For the same molecule, the “Oral Bioavailability” value (oral 30 mg/kg vs iv 10 mg/kg) is around 100%. Further, for the setting “oral 30 mg/kg, plasma”, the “AUC 0-inf_obs” value worked out at 19061 ng·h/mL, the “AUC 0-t” value was 18894 ng·h/mL, the Cmax was 8943 ng/mL and the Lambda_z was 0.16 h⁻¹. For the setting “oral 30 mg/kg, plasma”, the Tmax amounted to 30 min and the t½ stood at 264 min.
